Experimental data published in ChEMBL document CHEMBL5512632, “Unlocking the potential of 1,4-naphthoquinones: A comprehensive review of their anticancer properties” (Eur J Med Chem, 2024).
Each block holds one compound with its values, some of them ahead of it.

Experiments:
A549 [1] = assay: Antiproliferative activity against human A549 cells incubated for 48 hrs by MTT assay; type: functional, cell-based; conditions: A549, 48 h
MDA-MB-231 [2] = assay: Antiproliferative activity against human MDA-MB-231 cells incubated for 48 hrs by MTT assay; type: functional, cell-based; conditions: MDA-MB-231, 48 h
HepG2 [3] = assay: Antiproliferative activity against human HepG2 cells incubated for 48 hrs by MTT assay; type: functional, cell-based; conditions: HepG2, 48 h
MCF7 [4] = assay: Cytotoxicity against human MCF7 cells assessed as inhibition of cell growth incubated for 72 hrs by sulforhodamine B assay; type: functional, cell-based; conditions: MCF7, 72 h
PC-3 [5] = assay: Cytotoxicity against human PC-3 cells assessed as inhibition of cell growth incubated for 72 hrs by sulforhodamine B assay; type: functional, cell-based; conditions: PC-3, 72 h
HT-29 = assay: Cytotoxicity against human HT-29 cells assessed as inhibition of cell growth incubated for 72 hrs by sulforhodamine B assay; type: functional, cell-based; conditions: HT-29, 72 h
MOLM-14 = assay: Cytotoxicity against human MOLM-14 cells incubated for 48 hrs; type: functional, cell-based; conditions: MOLM-14, 48 h
MV4-11 = assay: Cytotoxicity against human MV4-11 cells incubated for 48 hrs; type: functional, cell-based; conditions: MV4-11, 48 h
A2780 = assay: Cytotoxicity against human A2780 cells incubated for 48 hrs by MTT assay; type: functional, cell-based; conditions: A2780, 48 h
HCT-116 [6] = assay: Cytotoxicity against human HCT-116 cells incubated for 48 hrs by MTT assay; type: functional, cell-based; conditions: HCT-116, 48 h
Bel-7402 = assay: Cytotoxicity against human Bel-7402 cells incubated for 48 hrs by MTT assay; type: functional, cell-based; conditions: Bel-7402, 48 h
MDA-MB-231 [7] = assay: Cytotoxicity against human MDA-MB-231 cells incubated for 48 hrs by MTT assay; type: functional, cell-based; conditions: MDA-MB-231, 48 h
HCT-15 [8] = assay: Cytotoxicity against human HCT-15 cells incubated for 48 hrs by MTT assay; type: functional, cell-based; conditions: HCT-15, 48 h
DLD-1 = assay: Antiproliferative activity against human DLD-1 cells assessed as inhibition of cell growth incubated for 96 hrs by CCK-8 assay; type: functional, cell-based; conditions: DLD-1, 96 h
HCT-8 = assay: Antiproliferative activity against human HCT-8 cells assessed as inhibition of cell growth incubated for 96 hrs by CCK-8 assay; type: functional, cell-based; conditions: HCT-8, 96 h
HCT-29 = assay: Antiproliferative activity against human HCT-29 cells assessed as inhibition of cell growth incubated for 96 hrs by CCK-8 assay; type: functional, cell-based; conditions: HCT-29, 96 h
A549 [9] = assay: Antiproliferative activity against human A549 cells assessed as reduction in cell growth incubated for 48 hrs by MTT reagent based microplate reader assay; type: functional; conditions: A549, 48 h
HepG2 [10] = assay: Antiproliferative activity against human HepG2 cells assessed as reduction in cell growth incubated for 48 hrs by MTT reagent based microplate reader assay; type: functional; conditions: HepG2, 48 h
LNCaP = assay: Antiproliferative activity against human LNCaP cells assessed as reduction in cell growth incubated for 48 hrs by MTT reagent based microplate reader assay; type: functional
SK-OV-3 = assay: Antiproliferative activity against human SK-OV-3 cells assessed as reduction in cell growth incubated for 48 hrs by MTT reagent based microplate reader assay; type: functional; conditions: SK-OV-3, 48 h
MCF7 [11] = assay: Antiproliferative activity against human MCF7 cells assessed as reduction in cell growth incubated for 48 hrs by MTT reagent based microplate reader assay; type: functional; conditions: MCF7, 48 h
HCT-116 [12] = assay: Cytotoxicity against human HCT-116 cells assessed as reduction in cell viability incubated for 72 hrs by MTT reagent based microplate reader assay; type: functional; conditions: HCT-116, 72 h
K562 = assay: Cytotoxicity against human K562 cells assessed as reduction in cell viability incubated for 72 hrs by MTT reagent based microplate reader assay; type: functional; conditions: K562, 72 h
HCT-15 [13] = assay: Cytotoxicity against human HCT-15 cells assessed as reduction in cell viability incubated for 72 hrs by MTT reagent based microplate reader assay; type: functional; conditions: HCT-15, 72 h
HL-60 = assay: Antiproliferative activity against human HL-60 cells assessed as inhibition of cell growth incubated for 72 hrs by MTT assay; type: functional, cell-based; conditions: HL-60, 72 h
AGS = assay: Antiproliferative activity against human AGS cells assessed as inhibition of cell growth incubated for 72 hrs by MTT assay; type: functional, cell-based
SK-MES-1 = assay: Antiproliferative activity against human SK-MES-1 cells assessed as inhibition of cell growth incubated for 72 hrs by MTT assay; type: functional, cell-based; conditions: SK-MES-1, 72 h
J82 = assay: Antiproliferative activity against human J82 cells assessed as inhibition of cell growth incubated for 72 hrs by MTT assay; type: functional, cell-based; conditions: J82, 72 h
MUGMel2 = assay: Antiproliferative activity against human MUG-Mel2 cells assessed as inhibition of cell growth incubated for 72 hrs by XTT assay; type: functional, cell-based; conditions: MUGMel2, 72 h
[14] = Antiproliferative activity against human FS-1 [Human leukemia] cells assessed as inhibition of cell growth incubated for 72 hrs by XTT assay; type: functional, cell-based
SBcl2 = assay: Antiproliferative activity against human SBcl2 cells assessed as inhibition of cell growth incubated for 72 hrs by XTT assay; type: functional, cell-based; conditions: SBcl2, 72 h
[15] = Antiproliferative activity against human WM9 cells assessed as inhibition of cell growth incubated for 72 hrs by XTT assay; type: functional, cell-based; conditions: WM9, 72 h
WM164 = assay: Antiproliferative activity against human WM164 cells assessed as inhibition of cell growth incubated for 72 hrs by XTT assay; type: functional, cell-based; conditions: WM164, 72 h
Glioblastoma cell line = assay: Antiproliferative activity against human Glioblastoma cell line assessed as reduction in cell growth incubated for 24 hrs by MTT assay; type: functional, cell-based
A498 = assay: Antiproliferative activity against human A498 cells assessed as reduction in cell growth incubated for 24 hrs by MTT assay; type: functional, cell-based; conditions: A498, 24 h
HeLa [16] = assay: Antiproliferative activity against human HeLa cells assessed as reduction in cell growth incubated for 24 hrs by MTT assay; type: functional, cell-based
[17] = Antiproliferative activity against human SK-RC-45 cells assessed as reduction in cell growth incubated for 24 hrs by MTT assay; type: functional, cell-based; conditions: SK-RC-45, 24 h
A549 [18] = assay: Antiproliferative activity against human A549 cells assessed as reduction in cell growth incubated for 24 hrs by MTT assay; type: functional, cell-based; conditions: A549, 24 h
HeLa [19] = assay: Cytotoxicity against human HeLa cells assessed as reduction in cell viability incubated for 48 hrs by MTT assay; type: functional, cell-based
MCF7 [20] = assay: Cytotoxicity against human MCF7 cells assessed as reduction in cell viability incubated for 48 hrs by MTT assay; type: functional, cell-based; conditions: MCF7, 48 h
DU-145 = assay: Cytotoxicity against human DU-145 cells assessed as reduction in cell viability incubated for 48 hrs by MTT assay; type: functional, cell-based; conditions: DU-145, 48 h
HCT-15 [21] = assay: Cytotoxicity against human HCT-15 cells assessed as reduction in cell viability incubated for 48 hrs by MTT assay; type: functional, cell-based; conditions: HCT-15, 48 h
PC-3 [22] = assay: Cytotoxicity against human PC-3 cells assessed as reduction in cell viability incubated for 48 hrs by MTT assay; type: functional, cell-based; conditions: PC-3, 48 h

IC50 (A549 [1]): 7.02 µM | IC50 (MDA-MB-231 [2]): 6.01 µM | IC50 (HepG2 [3]): 7.2 µM
SMILES: CC1=C(CCNC(=O)c2ccccc2)C(=O)c2c(O)cccc2C1=O

SMILES: CN(C)N1C=C2C[C@@H](O[Si](C)(C)C(C)(C)C)[C@@H]3OC(C)(C)O[C@@H]3[C@H]2C2=C1C(=O)c1c(O)cccc1C2=O
IC50 (MCF7 [4]): 16 µM | IC50 (PC-3 [5]): 0.7 µM | IC50 (HT-29): 0.2 µM

SMILES: O=C1C(NCCO)=C(C2=C(NCCO)C(=O)c3ccccc3C2=O)C(=O)c2ccccc21
IC50 (MOLM-14): 0.16 µM | IC50 (MV4-11): 0.2 µM

SMILES: CCCCCCCCC(OCCC(C)C)c1ccc2c(c1OC)/C(=N\O)C=C/C2=N\O (stereo not drawn)
IC50 (A2780): 8.26 µM | IC50 (HCT-116 [6]): 21.5 µM | IC50 (Bel-7402): 5.11 µM | IC50 (MDA-MB-231 [7]): 0.66 µM | IC50 (HCT-15 [8]): 36.4 µM

IC50 (DLD-1): 10 µM | IC50 (HCT-8): 2.16 µM | IC50 (HCT-29): 3.57 µM
SMILES: COC(=O)C(CS[C@H](CC=C(C)C)C1=CC(=O)c2c(O)ccc(O)c2C1=O)NC(=O)c1cc(S(C)(=O)=O)ccc1OC (stereo partly drawn)

IC50 (A549 [9]): 6.11 µM | IC50 (HepG2 [10]): 7.13 µM | IC50 (LNCaP): 3.62 µM | IC50 (SK-OV-3): 12.2 µM | IC50 (MCF7 [11]): 4.91 µM
SMILES: CC1=C(C2CC(=O)N(C)C2=O)C(=O)c2c(O)cccc2C1=O (stereo not drawn)

SMILES: COc1cc(C(CCC(C)C)OC)c(OC)c2c1/C(=N/O)C=C/C2=N/O (stereo not drawn)
IC50 (HCT-116 [12]): 2.47 µM | IC50 (K562): 1.25 µM | IC50 (HCT-15 [13]): 1.63 µM

IC50 (HL-60): 11.9 µM | IC50 (AGS): 15.5 µM | IC50 (SK-MES-1): 6.4 µM
SMILES: CC(=O)N(C1=C2NCCN=C2c2ccccc2C1=O)c1ccccc1
IC50 (J82): 2 µM

SMILES: CC(C)=C/C=C/C1=C(C(CC=C(C)C)C2=CC(=O)c3c(O)ccc(O)c3C2=O)C(=O)c2c(O)ccc(O)c2C1=O (stereo not drawn)
IC50 (MUGMel2): 0.7 µM | IC50 [14]: 0.5 µM | IC50 (SBcl2): 0.3 µM | IC50 [15]: 0.6 µM | IC50 (WM164): 1.7 µM

IC50 (Glioblastoma cell line): 17.2 µM | IC50 (HeLa [16]): 34.3 µM | IC50 (A549 [18]): 29.6 µM
SMILES: O=C1C(O)=C(C(C2=C(O)C(=O)c3ccccc3C2=O)c2ccc(C(F)(F)F)cc2)C(=O)c2ccccc21
IC50 (A498): 27.5 µM | IC50 [17]: 30.3 µM

SMILES: CO/N=C1\C(c2cc3c(cc2OC)OCO3)=CC(=O)c2cc3c(cc21)OCO3
IC50 (HeLa [19]): 0.104 µM | IC50 (MCF7 [20]): 0.196 µM | IC50 (DU-145): 0.023 µM | IC50 (HCT-15 [21]): 0.055 µM | IC50 (PC-3 [22]): 0.319 µM
